In PMC9273884, “Responsive Fluorescent Coumarin–Cinnamic Acid Conjugates for α-Glucosidase Detection” (Frontiers in Chemistry, 2022):
Entries after “also recorded” stand apart in the source; their conditions may differ.

Experiments:
[1] = pH-dependent emission (pKa by Henderson-Hasselbalch equation); format: physicochemical; settings: from emission spectra in PBS buffer pH 3.0 to 8.0, room temperature
Protocol: The emission spectra of the probes in PBS buffer (pH from 3.0 to 8.0) were determined at room temperature. The pKa value was calculated using the Henderson–Hosslbalch equation ([Finikova et al., 2003]): pH = pKa + lg ([A]/[HA]).

[2] = target: T1, α-Glucosidase from Saccharomyces cerevisiae (EC 3.2.1.20) (Saccharomyces cerevisiae, UniProt P53341); experiment: α-Glucosidase inhibition efficiency test (PNPG substrate, absorbance at 405 nm); format: biochemical; settings: 0.1 U/mL enzyme, 1 mmol/L PNPG, 37°C, triplicate mean; read-out: IC50 against α-glucosidase
T1 construct: purchased Sigma-Aldrich
Protocol: All chemicals and solvents were obtained from commercial suppliers without further purification. α-Glucosidase from Saccharomyces cerevisiae (EC 3.2.1.20) was purchased from Sigma-Aldrich. p-Nitrophenyl-α-D-galactopyranoside (PNPG) was obtained from Abcam.
Stock solutions of testing compounds were prepared in DMSO. Enzyme solution of α-glucosidase (2 U/mL) was prepared in 0.1 M PBS buffer. Nitrophenol-α-D-glucoside (PNPG) was dissolved in 0.1 M PBS buffer (pH 6.8) to obtain the substrate solution (4 mM). In total, 10 μL of α-glucosidase (final concentration 0.1 U/mL), 130 μL of PBS buffer, and 10 μL of the sample solution were added into 96-well plates in succession and incubated at 37°C for 10 min. Then 50 μL of substrate solution (PNPG final concentration 1 mmol/L) was added, followed by incubation at 37°C for another 30 min. The enzymatic activity was quantified by measuring the absorbance of the reaction mixture at 405 nm using a multimodel reader. The inhibition rate was calculated using the following equation: Inhibition rate (%) = [(A1−A0)/A0] × 100%, where A1 and A0 are the absorbance values of testing samples and blank control, respectively. The IC50 value was obtained from a plot of the inhibition rate versus the sample concentration curve. The assays were carried out in triplicate and the mean values were given.

[3] = tested on: glucose oxidase (GOD), polyphenol oxidase (TKY), pepsin (PEP), Cys, GSH, Lys, Ca2+, Cu2+, Fe3+, Mg2+, Zn2+; experiment: Binding selectivity of LD02: emission in the presence of potential competitors; settings: 10 μM LD02; enzymes 3.5 μM, small molecules and ions 1 mM; 10 mM PBS pH 7.4
Protocol: To verify the binding specificity of LD02 toward α-glucosidase, emission spectra of LD02 in the presence of α-glucosidase or various potential competitors such as other enzymes (including glucose oxidase (GOD), polyphenol oxidase (TKY), and pepsin (PEP)), and small molecules of interest (including Cys, GSH, Lys, Ca^2+, Cu^2+, Fe^3+, Mg^2+, and Zn^2+), were collected in 10 mM PBS buffer (pH = 7.4) at room temperature.
FIGURE 5 (A) Fluorescence spectra of LD02 (10 μM) in the presence of various species: α-glucosidase (α-Glu) (3.5 μM), GOD (3.5 μM), TKY (3.5 μM), PEP (3.5 μM), Cys (1 mM), GSH (1 mM), Lys (1 mM), Ca^2+ (1 mM), Cu^2+ (1 mM), Fe^3+ (1 mM), Mg^2+ (1 mM), and Zn^2+ (1 mM) in PBS buffer. (B) The plot of (I-I0)/I0 in A (λex = 365 nm, λem = 457 nm).

α-glucosidase [4] = target: T2, α-glucosidase (Saccharomyces cerevisiae, UniProt P53341); experiment: Fluorescence titration of the probes with α-glucosidase; format: binding; settings: for increase of maximum emission intensity on addition of α-glucosidase: 3.5 μM α-glucosidase, PBS buffer
T2 construct: purchased Sigma-Aldrich
Protocol: (§1) All chemicals and solvents were obtained from commercial suppliers without further purification. α-Glucosidase from Saccharomyces cerevisiae (EC 3.2.1.20) was purchased from Sigma-Aldrich. p-Nitrophenyl-α-D-[…] (PNPG) was obtained from Abcam. Nuclear magnetic resonance (NMR) spectra of new compounds were recorded in DMSO-d 6 using a Bruker Advance 500 MHz spectrometer. High-resolution mass spectrometry (HRMS) was measured on a Thermo Fisher Scientific Q Exactive Orbitrap mass spectrometer. UV–Vis absorption spectra were measured using an Hitachi 3,900 absorption spectrophotometer (Tokyo, Japan). Fluorescence spectra were recorded using an Edinburgh FLS1000 fluorescence spectrophotometer (Edinburgh, UK).
α-Glucosidase protein was titrated to the solution of the testing probe (LD01 or LD02) (10 μM), and the fluorescence emission spectra were recorded from 380 to 700 nm under excitation of 365 nm. The binding constants of Ka were obtained from a double logarithm regression curve ([Wei et al., 2010]): 1g[(I−Io)/Io] = 1gKa + n 1g[G],
where I and I0 are the current and initial fluorescence intensity, respectively, K a is the binding constant, n is the number of binding sites for each α-glucosidase, and [G] is the total concentration of the α-glucosidase protein.

α-glucosidase [5] = target: T2, α-glucosidase; experiment: Fluorescence competitive binding assay against α-glucosidase/LD02 complex
Protocol: as §1
The binding complexes of α-glucosidase with LD02 were prepared by adding α-glucosidase (final concentration = 3.5 μM) to the solution of LD02 (10 μM) in 10 mM PBS buffer (pH = 7.4). The dissociation constant of a competitor to α-glucosidase can be determined by titrating it against binding complexes of α-glucosidase with LD02, and can be calculated according to the Cheng–Prusoff equation ([Cheng and Prusoff, 1973]).

T2 sequence (P53341 whole entry): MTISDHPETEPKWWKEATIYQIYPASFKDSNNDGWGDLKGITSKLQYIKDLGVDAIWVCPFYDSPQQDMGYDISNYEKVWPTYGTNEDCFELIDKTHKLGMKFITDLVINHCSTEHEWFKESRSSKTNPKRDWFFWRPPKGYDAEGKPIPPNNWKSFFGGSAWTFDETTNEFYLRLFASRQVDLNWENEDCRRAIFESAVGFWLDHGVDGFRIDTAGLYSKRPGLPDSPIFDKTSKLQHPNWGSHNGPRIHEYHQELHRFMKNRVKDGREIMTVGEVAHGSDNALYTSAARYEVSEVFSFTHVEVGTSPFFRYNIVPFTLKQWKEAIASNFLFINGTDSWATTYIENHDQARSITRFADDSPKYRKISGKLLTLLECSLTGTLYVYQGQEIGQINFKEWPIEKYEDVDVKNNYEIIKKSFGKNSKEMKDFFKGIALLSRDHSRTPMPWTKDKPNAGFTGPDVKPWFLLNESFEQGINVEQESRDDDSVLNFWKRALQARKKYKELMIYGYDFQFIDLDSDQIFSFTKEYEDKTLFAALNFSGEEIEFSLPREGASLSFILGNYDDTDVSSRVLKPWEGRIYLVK
T1 sequence (P53341 whole entry): as above

SMILES | pKa [1] | IC50 [2] [µM] | effect of potential competitors on emission band and intensity (selectivity toward α-glucosidase) [3] | Kd (α-glucosidase [4]) [µM] | increase of maximum emission intensity on addition of α-glucosidase (α-glucosidase [4]; 10 μM probe) | binding ratio (n, number of binding sites) to α-glucosidase (α-glucosidase [4]; double logarithm regression, 10 μM probe, PBS) | Kd (α-glucosidase [5]) [µM]
C/C(=N\OC(=O)/C=C/c1ccc(N(C)C)cc1)c1cc2ccccc2oc1=O [LD02] | 4.6 | 32.5 ± 0.8 | no obvious effect | 158 | 2.7 times | approximately 0.5 | 
CCN(CC)c1ccc2cc(/C(C)=N/OC(=O)/C=C/c3ccc(Br)cc3)c(=O)oc2c1 [LD01] | 4.2 | 4.6 ± 0.5 |  |  | no obvious emission changes; also recorded: does not have such changes |  | 6.31
